Measurements: patent publication US20260294906A1, “TREATING PSORIASIS USING A SMALL MOLECULE INHIBITOR OF TUMOR NECROSIS FACTOR ALPHA” (SANOFI, priority 2023, published 2026)
Where “and” joins values, the source holds several entries; their conditions need not be identical. Identical values can stand only once. Entries after “also recorded” stand apart in the source; their conditions may differ.

Legend:
Type in all cases: in vivo, human
[1] = test system: patients with mild to moderate psoriasis; test: Clinical response by static Investigator's Global Assessment (sIGA) score, phase 1 placebo-controlled study; conditions: 200 mg BID
Procedure: (§1) A double-blind, randomized, placebo-controlled phase 1 study was carried out in participants with mild to moderate psoriasis. Study participants were randomized to 200 mg twice a day (BID) of Compound 1 or placebo in 2:1 ratio (approximately 24 in the treatment group and 12 in the placebo group). The study comprised an up to 4-week screening period, and a 4-week treatment period with Compound 1 or placebo. An end-of-study visit was carried out 10±3 days after the last investigational medicinal product (IMP) administration.
(§2) Two study interventions were used, Compound 1 and placebo. The Compound 1 intervention comprised 4× tablets of Compound 1 50 mg twice daily, i.e. 200 mg BID, for 4 weeks. The placebo intervention was 4× tablets of placebo twice daily for 4 weeks. Tablets were administered orally.
(§3) The interventions were used in two arms of the study. Arm 1 was the experimental arm and it involved participants receiving 200 mg of Compound BID for 4 weeks under fed conditions. Arm 2 was the placebo arm and it involved participants receiving the matching placebo tablets for 4 weeks under fed conditions.
The sIGA employed in this study is a six-point ordinal scale used to assess the global severity of disease over the body as a whole, as measured by the overall degree of induration, scaling and erythema of a subject's psoriatic lesions. For statistical analysis, the scale was assigned scores of 0 to 5, for ‘clear’ to ‘very severe’, respectively.
Scoring was accorded to a subject on a scale of 0 to 5 for each of erythema, induration, and scaling; a mean sIGA score was calculated as the mean average of those individual scores and this was translated into an overall sIGA score (an integer between 0 and 5) as described in the tables below:
The sIGA score was assessed as described herein.

[2] = test system: patients with mild to moderate psoriasis; test: Clinical response by Psoriasis Area and Severity Index (PASI) score, phase 1 placebo-controlled study; conditions: for LSm (±SE) % improvement from baseline in total PASI score: 200 mg BID oral, fed; for LSm (±SE) % improvement from baseline in total PASI score / ΔLSm (±SE) (Compound 1 minus placebo) in % improvement from baseline in total PASI score: MMRM
Procedure: as §1
(§4) The primary objective of the study was to assess the safety, tolerability, and clinical efficacy of Compound 1 at 200 mg BID via oral administration. Also evaluated was the clinical effect of Compound 1 as compared to placebo on the percent change in PASI and TLS scores from baseline to week 2 and week 4. The percent change in PASI score from baseline to week 4 was determined. TLS score was also assessed over the same time period. Also assessed was the effect of Compound 1 on biomarkers of psoriasis. Blood samples collected at predetermined time points were processed to quantify serum levels of biomarkers, including interleukin (IL)-17A, IL-17F, and IL-22 by high sensitivity methods. IL-17A, IL-17F and IL-22 are the main cytokines released by Th17 cells. Plasma levels of Compound 1 were measured to assess pharmacokinetics in the study population.
as §2, §3
The PASI scoring system evaluates psoriasis based on the body surface area (BSA) involvement and morphological characteristics of the plaques (see, e.g., EMA Guidelines on clinical investigation of medicinal products indicated for the treatment of psoriasis, Nov. 18, 2004). BSA estimation was performed using the ‘palm’ (i.e., the subject's flat hand and thumb together, fingers not included). The palm thus defined represented 1% of the total BSA. The PASI combines assessments of four body areas: head (h, 10%), upper extremities (u, 20%), trunk (t, 30%) and lower extremities (1, 40%). Using the palm to assess BSA (as described above) the proportion of skin affected by psoriasis in each area was given a numerical score (A) representing the proportion involved: 1 (0 to 9%); 2 (10 to 29%); 3 (30 to 49%); 4 (50 to 69%); 5 (70 to 89%) and 6 (90 to 100%). Within each area the severity of three signs, erythema (E), thickness/induration (I), and desquamation/scaling (D), was each assessed on a five-point scale: 0, none; 1, mild; 2, moderate; 3, severe; 4, very severe. The PASI ranges from 0 to 72 and is calculated using the following formula: […]
The PASI score was assessed at baseline, 2 weeks and 4 weeks. Table 4 below presents the LSm (±SE) for each treatment and ΔLSm (Compound 1 minus placebo) with 90% confidence interval (CI) in percentage improvement from baseline in the total PASI score at week 2 and week 4.
The results in Table 4 were obtained using the MMRM.
Table 5 below presents the mean (±SEM) percentage improvements from baseline in the total PASI score at week 2 and week 4 in the patient population with PASI<10 (mild) or PASI≥[…] at baseline.
The results in Table 5 come from standard descriptive analysis, ^(1)N=3, ^(2)N=15.

[3] = Plasma levels of Compound 1 in the study population (pharmacokinetics); conditions: 200 mg BID oral, fed
Procedure: as §4, §2
The interventions were used in two arms of the study. Arm 1 was the experimental arm and it involved participants receiving 200 mg of Compound BID for 4 weeks under fed conditions. […]

CN1C(=O)c2cccc(OC(F)F)c2[C@H]2C[C@@H]1c1nc3ccc(-c4cnc(C5(N)CCC5)nc4)cc3n12 [Compound 1, (7R,14R)-11-[2-(1-aminocyclobutyl)pyrimidin-5-yl]-1-(difluoromethoxy)-6-methyl-6,7-dihydro-7,14-methanobenzimidazo[1,2-b][2,5]benzodiazocin-5(14H)-one]
change in sIGA score (in words) ([1]; compared with placebo): clinically important change in sIGA score after 4 weeks of treatment; also recorded: a higher percentage of patients receiving Compound 1 improved from ‘moderate’ disease at baseline, to ‘mild’ or ‘almost clear’ at week 2 and week 4
% of subjects with no change in sIGA from baseline ([1]; week 2): 68.0%
% of subjects with sIGA change from baseline of −1 ([1]; week 2): 32.0%
Number of subjects with no change in sIGA from baseline ([1]; week 2): 17
Number of subjects with sIGA change from baseline of +1 ([1]; week 2): 0
Number of subjects with sIGA change from baseline of −1 ([1]; week 2): 8
% of subjects with no change in sIGA from baseline ([1]; week 4): 38.5%
% of subjects with sIGA change from baseline of +1 ([1]; week 4): 4.2%
Number of subjects with no change in sIGA from baseline ([1]; week 4): 9
Number of subjects with sIGA change from baseline of +1 ([1]; week 4): 1
Number of subjects with sIGA change from baseline of −1 ([1]; week 4): 14
% of subjects with sIGA change from baseline of −1 (improvement by at least 1 severity level) ([1]; week 4, placebo 0%): 58.3%
Mean (±SEM) % improvement from baseline in total PASI score ([2]; PASI < 10 (mild) population, week 2, 200 mg BID, N = 16, SEM 3.98): 21.24% and 21.2%
Mean (±SEM) % improvement from baseline in total PASI score ([2]; PASI < 10 (mild) population, week 4, 200 mg BID, N = 15, SEM 5.34): 33.8% and 33.83%
Mean (±SEM) % improvement from baseline in total PASI score ([2]; PASI ≥ 10 (moderate) population, week 2, 200 mg BID, N = 9): 9.3% and 9.31% and 9.3 (3.60) %
Mean (±SEM) % improvement from baseline in total PASI score ([2]; PASI ≥ 10 (moderate) population, week 4, 200 mg BID, N = 9): 33.2% and 33.19% and 33.2 (4.03) %
improvement in PASI score (in words) ([2]; after 4 weeks of treatment): clinically meaningful
improvement in psoriasis severity / clinical efficacy (in words) ([2]; compared to placebo, 4-week treatment, 200 mg BID): rapid and statistically significant improvement in psoriasis severity compared to placebo as early as week 2; also recorded: consistent clinical efficacy in a 4-week treatment period; also recorded: clinically effective, with sustained clinical response; also recorded: effective in improving clinical parameters in human patients
LSm (±SE) % improvement from baseline in total PASI score ([2]; week 2, vs placebo 4.12%, p=0.005): 17.73% and 17.73 (2.75) %
ΔLSm (±SE) (Compound 1 minus placebo) in % improvement from baseline in total PASI score ([2]; week 2, 200 mg BID, 90% CI 5.28 to 21.94): 13.61% and 13.61 (4.92) %
LSm (±SE) % improvement from baseline in total PASI score ([2]; week 4, vs placebo 15.71%, p=0.009): 35.09% and 35.09 (4.47) %
ΔLSm (±SE) (Compound 1 minus placebo) in % improvement from baseline in total PASI score ([2]; week 4, 200 mg BID, 90% CI 6.28 to 32.48): 19.4% and 19.38% and 19.38 (7.75) %
mean reduction in total PASI score from baseline ([2]; week 4, FIG. 2, placebo around 1.25 points): around 3.0 points
Mean pre-dose plasma levels / steady state (in words) ([3]; Day 8 through Day 29): steady state was achieved within the first week and maintained until the end of the treatment
Mean pre-dose and post-dose plasma concentrations (in words) ([3]; compared with previous study in healthy participants): consistent with analogous values observed at the same dose in a previous study in healthy participants; also recorded: consistent with pharmacokinetic data previously obtained in healthy participants
